Assay results taken from PubChem BioAssay AID504443 (Sanford-Burnham Center for Chemical Genomics, 2011).
Calls of active or inactive are those of the source. The rule behind the calls is not given here.

Each molecule was assayed on AML12 mouse hepatocytes, cytotoxicity (assay: cytotoxicity in AML12 hepatocytes, SAR follow-up, cytotoxicity control, cell-based (AID 504443)).
With `COc1ccc(CCNC(=O)c2cc3ccccc3n2C)cc1OC` the IC50 was > 10 µM (inactive).
For `COc1ccc(CCNC(=O)c2cc3sccc3n2C)cc1OC`, the IC50 was > 10 µM (inactive).
For `CCOc1ccc(CCNC(=O)CN2C(=O)c3cccnc3Oc3ccc(C)cc32)cc1OCC`, the IC50 was > 10 µM (inactive).
With `CCOc1ccc(CCNC(=O)CCC(=O)N2CCSc3ccccc32)cc1OCC` the IC50 was > 10 µM (inactive).
For `Cn1c(C(=O)NCc2ccc3c(c2)OCO3)cc2ccsc21`, the IC50 was > 10 µM (inactive).
In the case of `CCOc1ccc(CCNC(=O)c2cc(-c3ccccc3)c(N3CCOCC3)s2)cc1OC`, the IC50 is reported as > 10 µM (inactive).
`CCOc1cc(CCNC(=O)c2cc3sccc3n2CC)ccc1OC` was tested, and the IC50 was > 10 µM (inactive).
With `COc1ccc(CCNC(=O)c2cc(-c3ccccc3)c(N3CCOCC3)s2)cc1OC` the IC50 was > 10 µM (inactive).
For `COc1ccc(CNC(=O)c2cc(-c3ccccc3)c(N3CCOCC3)s2)cc1OC`, the IC50 was > 10 µM (inactive).
With `CCOc1cc(CCNC(=O)c2cc3ccsc3n2C)ccc1OC` the IC50 was > 10 µM (inactive).
`COc1ccc(NC(=O)c2cc3ccsc3n2C)cc1OC` was tested, and the IC50 was > 10 µM (inactive).
`CCOc1ccc(CCNC(=O)CN2CCN(Cc3ccccc3C)C2=O)cc1OCC` was tested, and the IC50 was > 10 µM (inactive).
For `CCn1c(C(=O)Nc2ccc3c(c2)OCO3)cc2sccc21`, the IC50 was > 10 µM (inactive).
`CCOc1ccc(CCNC(=O)CCC(=O)N2CCOc3ccccc32)cc1OCC` was tested, and the IC50 was > 10 µM (inactive).
With `Cn1c(C(=O)Nc2ccc3c(c2)OCO3)cc2ccsc21` the IC50 was > 10 µM (inactive).
`COc1ccc(CCNC(=O)CSc2cc(=O)n(C)c3ccccc23)cc1OC` was tested, and the IC50 was > 10 µM (inactive).
`COc1ccc(CCNC(=O)Cn2cccc2C(=O)c2ccccc2C)cc1OC` was tested, and the IC50 was > 10 µM (inactive).
With `CCOc1cc(CCNC(=O)c2cc3sccc3[nH]2)ccc1OC` the IC50 was > 10 µM (inactive).
With `COc1cc(CNC(=O)CSc2cc(=O)n(C)c3ccccc23)cc(OC)c1OC` the IC50 was > 10 µM (inactive).
`CCOc1ccc(CCNC(=O)c2cc3ccsc3n2CC)cc1OCC` was tested, and the IC50 was > 10 µM (inactive).
For `COc1ccc(CCNC(=O)c2cc3sc(Cl)cc3n2C)cc1OC`, the IC50 was > 10 µM (inactive).
With `CCOc1ccc(CCNC(=O)c2cc3ccsc3n2C)cc1OCC` the IC50 was > 10 µM (inactive).
With `CCOc1ccc(CCNC(=O)c2cc3ccccc3n2C)cc1OC` the IC50 was > 10 µM (inactive).
In the case of `CCOc1ccc(CCNC(=O)CSc2cc(=O)n(C)c3ccccc23)cc1OC`, the IC50 is reported as > 10 µM (inactive).
With `COc1ccc(CNC(=O)CSc2cc(=O)n(C)c3ccccc23)cc1OC` the IC50 was > 10 µM (inactive).
In the case of `CCOc1ccc(CCNC(=O)CSc2cc(=O)n(C)c3cc(Cl)ccc23)cc1OCC`, the IC50 is reported as > 10 µM (inactive).
`CCOc1ccc(CCNC(=O)Cn2nc(C)c3c(C)n(-c4ccccc4)nc3c2=O)cc1OCC` was tested, and the IC50 was > 10 µM (inactive).
With `CCOc1cc(CCNC(=O)CSc2cc(=O)n(C)c3ccccc23)ccc1OC` the IC50 was > 10 µM (inactive).
`Cn1c(=O)cc(SCC(=O)Nc2ccc3c(c2)OCO3)c2ccccc21` was tested, and the IC50 was > 10 µM (inactive).
`CCn1c(C(=O)NCc2ccc(OC)c(OC)c2)cc2ccsc21` was tested, and the IC50 was > 10 µM (inactive).
`CCOc1ccc(CCNC(=O)c2cc3ccsc3n2C)cc1OC` was tested, and the IC50 was > 10 µM (inactive).
In the case of `CCOc1cc(CCNC(=O)COc2cc(=O)n(C)c3ccccc23)ccc1OC`, the IC50 is reported as > 10 µM (inactive).
`CCOc1ccc(CCNC(=O)c2cc3sc(Cl)cc3n2C)cc1OCC` was tested, and the IC50 was > 10 µM (inactive).
With `O=C(NCCc1ccc2c(c1)OCO2)c1cc2sccc2[nH]1` the IC50 was > 10 µM (inactive).
`CCOc1cc(CCNC(=O)c2cc3ccccc3n2C)ccc1OC` was tested, and the IC50 was > 10 µM (inactive).
In the case of `CCOc1ccc(CCNC(=O)CCC(=O)N2CCOc3ccc(C)cc32)cc1OCC`, the IC50 is reported as > 10 µM (inactive).
For `CCOc1ccc(CCNC(=O)COC(=O)c2cc(OC)cc(OC)c2)cc1OCC`, the IC50 was > 10 µM (inactive).
`Cn1c(=O)cc(SCC(=O)NCc2ccc3c(c2)OCO3)c2ccccc21` was tested, and the IC50 was > 10 µM (inactive).
For `CCOc1ccc(CCNC(=O)c2cc3sccc3n2C)cc1OCC`, the IC50 was > 10 µM (inactive).
With `CCOc1ccc(CCNC(=O)c2nnc(Cc3ccc(F)cc3)o2)cc1OCC` the IC50 was > 10 µM (inactive).
With `CCOc1ccc(CCNC(=O)c2ccc(N3CCOCC3)s2)cc1OCC` the IC50 was > 10 µM (inactive).
In the case of `CCn1c(C(=O)Nc2ccc3c(c2)OCO3)cc2ccsc21`, the IC50 is reported as > 10 µM (inactive).
`CCn1c(C(=O)NCCc2ccc(OC)c(OC)c2)cc2ccsc21` was tested, and the IC50 was > 10 µM (inactive).
With `CCOc1ccc(CCNC(=O)Cn2cccc2C(=O)c2ccccc2)cc1OCC` the IC50 was > 10 µM (inactive).
In the case of `CCOc1ccc(CCNC(=O)Cn2cccc2C(=O)c2ccccc2C)cc1OCC`, the IC50 is reported as > 10 µM (inactive).
`CCOc1ccc(CCNC(=O)COc2cc(=O)n(C)c3ccccc23)cc1OCC` was tested, and the IC50 was > 10 µM (inactive).
For `CCOc1ccc(CCNC(=O)Cn2ncn3nc(-c4ccc(OC)cc4)cc3c2=O)cc1OCC`, the IC50 was > 10 µM (inactive).
With `CCn1c(C(=O)Nc2ccc(OC)c(OC)c2)cc2ccsc21` the IC50 was > 10 µM (inactive).
With `COc1ccc(CCNC(=O)COC(=O)c2cc(OC)c(OC)cc2OC)cc1OC` the IC50 was > 10 µM (inactive).
With `CCOc1ccc(CCNC(=O)CSc2cc(=O)n(C)c3ccccc23)cc1OCC` the IC50 was > 10 µM (inactive).
For `COc1ccc(CNC(=O)c2cc3ccsc3n2C)cc1OC`, the IC50 was > 10 µM (inactive).
For `CCOc1cc(CCNC(=O)c2cc(-c3ccccc3)c(N3CCOCC3)s2)ccc1OC`, the IC50 was > 10 µM (inactive).
In the case of `CCOc1ccc(CCNC(=O)c2cc3sccc3n2CC)cc1OC`, the IC50 is reported as > 10 µM (inactive).
`CCOc1ccc(CCNC(=O)C2CC=CCC2C(=O)OC(C)C)cc1OCC` (stereo not drawn) was tested, and the IC50 was > 10 µM (inactive).
For `CCn1c(C(=O)NCc2ccc3c(c2)OCO3)cc2sccc21`, the IC50 was > 10 µM (inactive).
For `CCOc1ccc(CCNC(=O)COC(=O)c2cc(OC)c(OC)c(OC)c2)cc1OCC`, the IC50 was > 10 µM (inactive).
For `COc1ccc(CCNC(=O)c2cc(-c3ccccc3)c(N3CCOCC3)s2)c(OC)c1OC`, the IC50 was > 10 µM (inactive).
`CCOc1ccc(CCNC(=O)c2cc3ccsc3n2CC)cc1OC` was tested, and the IC50 was > 10 µM (inactive).
With `O=C(NCCc1ccc2c(c1)OCO2)c1ccc(N2CCOCC2)s1` the IC50 was > 10 µM (inactive).
With `CCOc1ccc(CCNC(=O)CCc2nnc3ccc(N4CCCCC4)nn23)cc1OCC` the IC50 was > 10 µM (inactive).
`COc1ccc(CNC(=O)c2ccc(N3CCOCC3)s2)cc1OC` was tested, and the IC50 was > 10 µM (inactive).
For `CCOc1ccc(CCNC(=O)CSc2cc(=O)n(CC)c3ccccc23)cc1OCC`, the IC50 was > 10 µM (inactive).
With `CCOc1ccc(CCNC(=O)c2cc(-c3ccccc3)c(N3CCOCC3)s2)cc1OCC` the IC50 was > 10 µM (inactive).
`COc1cc(CNC(=O)c2cc3ccsc3n2C)cc(OC)c1OC` was tested, and the IC50 was > 10 µM (inactive).
In the case of `Cn1c(=O)cc(SCC(=O)NCCc2ccc3c(c2)OCO3)c2ccccc21`, the IC50 is reported as > 10 µM (inactive).
In the case of `CCn1c(C(=O)NCc2cc(OC)c(OC)c(OC)c2)cc2sccc21`, the IC50 is reported as > 10 µM (inactive).
For `CCn1c(C(=O)Nc2ccc(OC)c(OC)c2)cc2sccc21`, the IC50 was > 10 µM (inactive).
In the case of `O=C(NCCc1ccc2c(c1)OCO2)c1cc(-c2ccccc2)c(N2CCOCC2)s1`, the IC50 is reported as > 10 µM (inactive).
`CCn1c(C(=O)NCCc2ccc(OC)c(OC)c2)cc2sc(Cl)cc21` was tested, and the IC50 was > 10 µM (inactive).
In the case of `CCOc1ccc(CCNC(=O)CCOc2cc(C)ccc2C)cc1OCC`, the IC50 is reported as > 10 µM (inactive).
In the case of `CCOc1ccc(CCNC(=O)c2cc3sccc3[nH]2)cc1OCC`, the IC50 is reported as > 10 µM (inactive).
`Cn1c(C(=O)NCCc2ccc3c(c2)OCO3)cc2ccccc21` was tested, and the IC50 was > 10 µM (inactive).
For `CCn1c(C(=O)NCc2cc(OC)c(OC)c(OC)c2)cc2ccsc21`, the IC50 was > 10 µM (inactive).
`CCOc1ccc(CCNC(=O)c2cc3sccc3n2CC)cc1OCC` was tested, and the IC50 was > 10 µM (inactive).
In the case of `CCOc1ccc(CCNC(=O)CCc2nnc3ccc(N4CCCC4)nn23)cc1OCC`, the IC50 is reported as > 10 µM (inactive).
With `CCOc1cc(CCNC(=O)c2ccc(N3CCOCC3)s2)ccc1OC` the IC50 was > 10 µM (inactive).
With `CCOc1ccc(CCNC(=O)CCc2nc(-c3ccc(OC)cc3)no2)cc1OCC` the IC50 was > 10 µM (inactive).
`CCOc1ccc(CCNC(=O)COC(=O)c2ccc(OC)c(OC)c2OC)cc1OCC` was tested, and the IC50 was > 10 µM (inactive).
